Earlier results on four compounds are cited in US10143639B2, “Use of adelmidrol and other topical or oral cannabinomimetic or aliamide mast cell inhibitors to treat dermatoheliosis, seborrheic keratoses, and androgenetic alopecia” (priority 2017, dated 2018).

One series concerns hair growth in mice. To be noted: applied to the skin of mice.
The next series concerns AGA patients. Particulars: share of treated AGA patients improving.
Another series deals with AGA scalp. Particulars: topical application, especially in subjects already taking finasteride.

Turning to `CCCCCCCCCCCCCCCC(=O)NCCO` [PEA, palmitoylethanolamide], the “pro-inflammatory effects of NGF” value with NGF is listed as “turned off the pro-inflammatory effects of NGF”. Turning to `CCCCC[C@H](O)/C=C/[C@H]1C(=O)C[C@H](O)[C@@H]1C/C=C\CCCC(=O)O` [PGD2, Prostaglandin D2], the hair growth entry in the series with hair growth in mice is reported as “stopped hair growth”. For `CC(C)(C)NC(=O)[C@H]1CC[C@H]2[C@@H]3CC[C@H]4NC(=O)C=C[C@]4(C)[C@H]3CC[C@]12C` [finasteride], the “clinical improvement in treated AGA patients” value with AGA patients is 50-60%. Consider `CCCCC/C=C\C/C=C\CCCCCCCC(=O)O` [linoleic acid], for which the hair growth result with AGA scalp is on record as “improved hair growth”.
